Measured values published in ChEMBL document CHEMBL1146415, “3-Epi-aplykurodinone B, a new degraded sterol from Aplysia fasciata” (1997).

Columns and labels:
Assay type in all cases: functional
Conditions in all cases: read-out: ED50 (the source's name)
A549 = assay: Cytotoxicity against human A549 cells
P388 = assay: Cytotoxicity against mouse P388 cells
HT-29 = assay: Cytotoxicity against human HT-29 cells
SK-MEL-28 = assay: Cytotoxicity against human SK-MEL-28 cells

Measured: EC50

CC(C)=CCC[C@@H](C)[C@H]1C[C@@H]2OC(=O)C[C@@H]3C(=O)CC[C@@]1(C)[C@H]23 [3-EPI-APLYKURODINONE B]
2.5 µg/mL: all assays above
